Measurements as given in patent US10947260B2, “Phosphinolactone derivatives and pharmaceutical uses thereof” (INSTITUT NATIONAL DE LA SANTE ET DE LA RECHERCHE MEDICALE …, priority 2016, dated 2021).

Legend:
[1] = system: mice treated with Aβ25-35
Procedure: The hippocampi were homogenized in 50 mM Tris-150 mM NaCl solution, pH 7.5, and sonicated for 20 s. After centrifugation at 16 100 g for 15 min at 4° C., the supernatants were used for ELISA assays in accordance with the manufacturer's instructions (ThermoScientific, Courtaboeuf, France; USCN, Wuhan, China). For each assay, absorbance was read at 450 nm and the concentration of each sample calculated in comparison with a standard curve. The results are expressed in ng or pg per mg of tissue and expressed as % of the control group.
On Day 9, the animals were sacrificed, the brains removed, the hippocampi and cortex dissected and frozen.

[2] = system: mice treated with Aβ25-35; experiment: Passive avoidance test, Aβ25-35 model; type: in vivo; conditions: 0.1 and 0.3 mg/kg IP; Days 8 and 9
Procedure: The amyloid-β[25-35] peptide (Aβ25-35) and control peptide (Sc.Aβ) were obtained from Genepep (Saint-Jean-de-Vedas, France). They were solubilized in injectable distilled water at a concentration of 3 mg/ml and stored at −20° C. Before injection, the peptides were incubated at 37° C. for 4 days, which enabled the Aβ25-35 peptide but not the Sc.Aβ, to form oligomers. They were administered via intracerebroventricular route (ICV). The animals were anesthetized by inhaling 2.5% isoflurane (TEM) and were given 3 μl of peptide solution via direct ICV route (Haley and McCormick's method). For injection a 10 μl Hamilton micro-syringe was used at a flow rate of 1 μl/min.
The apparatus contained two compartments (15×20×15 cm in height) with one light part having walls in white PVC and the other dark with walls in black PVC and a grid floor. A vertical sliding door separated each compartment. A 60 W lamp was positioned 40 cm above the white compartment during the experiment. Electrical shocks (0.3 mA for 3 s) were delivered to the grid floor by means of a scrambled shock generator (Lafayette Instruments, Lafayette, United States). The vertical sliding door was first closed during the training session. […] Step-through latency (STL) i.e. the time taken to enter the dark compartment and the number of cries, were recorded. […] Step-through latency was recorded up to 300 s. […]

[3] = system: APPSwe mice; experiment: Biochemical analyses in hippocampus of APPSwe mice; type: in vivo; conditions: 1 mg/kg/j IP
Procedure: FIG. 12: Biochemical analyses of the effect of treatments with compound 3b (a) or 3c (b) in the hippocampus of APPSwe mice. Oxidative stress was measured via the level of peroxidation of membrane lipids at (a), or DCF fluorescence at (b). The expression levels of synaptophysin, Bax, IL1β and TNFα were measured using commercial Elisa kits. The values are given as % of the control group WT/V. N=6-8 per group. *p<0.05, **p<0.01 compared with group WT/V; #p<0.05, ##p<0.01 compared with group APPSwe/V; Student t-test.
After sacrifice, the hippocampus and brain cortex of the mice were dissected and frozen to −80° C. until use. The accumulation of reactive oxygen species was measured by fluorescence of 2′,7′-dichlorofluorescein (DCF) in the hippocampus of the mice ex vivo. DCF diacetate (0.5 μM) (Sigma-Aldrich) was added to SDS-soluble fractions of hippocampus extract. After 30 min at 37° C., DCF fluorescence was quantified (excitation at 485 nm, emission at 530 nm) in a Fluoroskan Ascent spectrofluorometer (Thermo Scientific, Waltham, USA), and normalized with the protein concentrations of the extracts.
Peroxidation of membrane lipids was measured using the cumene/xylenol method. The hippocampi were homogenized in methanol (1:10), centrifuged at 1 000 g for 5 min and the supernatant collected. Aliquots were added to a solution containing 1 mM FeSO4, 0.25 m H2SO4, 1 mM xylenol orange and incubated for 30 min at ambient temperature. Absorbance was measured at 580 nm (A5801), then 10 μl of 1 mM cumene hydroperoxide (CHP) was added and the sample incubated 30 min at ambient temperature. Absorbance was measured at 580 nm (A5802). Lipid peroxidation level was determined as CHP equivalents: CHP eq.=A5801/A5802×[CHP (nmol)]×dilution, and calculated in CHP eq. per tissue weight expressed as % of the control group.
Various biochemical parameters were analysed in the hippocampus of APPSwe mice after treatments with 3b, 2 mg/kg/j IP, or 3c, 1 mg/kg/j IP (FIG. 12).

[4] = 1.5 mg/kg IP, control ScAβ animals

Structure (SMILES)	Bax in control animals ScAβ [1, 4]	Bax/Bcl2 ratio in control animals ScAβ [1, 4]	Bcl2 levels ([1]; 0.3-1.5 mg/kg IP)	long-term memory response (passive avoidance step-through latency) [2]	IL1β level, hippocampus [3]	expression of Bax, hippocampus [3]	oxidative stress (DCF fluorescence), hippocampus [3]	synaptophysin level, hippocampus [3]
CC1(C)COP(=O)(c2cccc(Cl)c2)C(C)(C)N1 (racemic) [Compound 3b, (±)-2-(3-Chlorophenyl)-2-oxo-3,3,5,5-tetramethyl-[1,4,2]-oxazaphosphinane]	tends to increase Bax	tends to increase	no effect					
CC1(C)COP(=O)(c2ccc(Cl)cc2)C(C)(C)N1 (racemic) [Compound 3c, (±)-2-(4-Chlorophenyl)-2-oxo-3,3,5,5-tetramethyl-[1,4,2]-oxazaphosphinane]				appeared effective	not	caused a decrease	not	not
